Measured values as given in patent US20250304523A1, “COMBINED LACTATE AND KETONE BODY ESTERS FOR MEDICAL AND NUTRITIONAL USE” (Aarhus Universitet, priority 2022, published 2025).

Assays:
Type in all cases: in vivo
[1] = Quantification of BHB and lactate in rat serum after oral administration (LC-MS/MS); conditions: compared to baseline (internal control), sampling until 180 minutes
Description: (§1) The diLaKe ester (formula II) is diluted in physiological saline solution (0.9% NaCl) and administered as a single bolus of 2 mL, per oral dose. The dose of 4500 mg/kg is based on a previous pilot series. Placebo animals receive a single bolus of 2 mL physiological saline solution (0.9% NaCl).
Male Sprague Dawley rats are kept for acclimatization at a constant temperature of 23° C., with a 12 h light-dark cycle and with unlimited access to food and water. All animal handling is in accordance with national guidelines in Denmark and the Guide for the Care and Use of Laboratory Animals^1 and all experiments conformed to Danish Law (Act. No. 1306 of 23 Nov. 2007).
The rats are randomly selected to receive either diLaKe or placebo.
Rats are anaesthetised in an induction chamber with 8% Sevoflurane (Sevorane®, AbbVIE A/S, Copenhagen, Denmark) mixed with oxygen saturated atmospheric air (flow: 2.0 L/min).
Upon achieved anaesthesia, the rats are intubated and connected to a mechanical ventilator (Ugo Basile 7025 rodent ventilator, Comerio, Varese, Italy) with an adjusted flow of 1.0 L/min with 3.5% Sevoflurane. Body temperature is kept at a constant 37° C.±1° C. with a temperature probe (UNO, Zevenaar, Holland). A PTFE coated flexible orogastric tube (Fuchigami, Japan) is placed and the rat is left for stabilization for 15 minutes.
After stabilization a baseline blood sample is collected from the rat tail vein before administration of diLaKe or placebo.
(§2) Following the baseline blood sample, a bolus of diLaKe solution or placebo is administered via the orogastric tube to the animals. […] Serum is collected and stored at −80° C. for further analysis.
The concentration of BHB and lactate will be determined in the blood samples isolated from the rats according to example 3. Rat serum isolated every 15 minutes for a 2 hours are analyzed. The quantification is done on LC-MS/MS using isotopically labeled internal standards (7).
The LaKe ester (formula XXII and XXIII) was diluted in physiological saline solution (0.9% NaCl) and administered as a single bolus of 2 mL, per oral dose. The dose of 4500 mg/kg was based on a previous pilot series (data not shown).
Male Sprague Dawley rats (300-350 g, Taconic, Ry, Denmark) were kept for acclimatization at a constant temperature of 23° C., with a 12 h light-dark cycle and with unlimited access to food and water. […]
Based on own experience and reports by other research groups, a sample size of n=8 was considered adequate to identify a treatment effect. All results are expressed as mean±SD unless otherwise stated. Differences in concentrations were analysed using two-way ANOVA with Bonferroni post hoc correction. […]

[2] = test system: free fatty acids (FFA); experiment: Non-esterified free fatty acids in rat serum after oral administration (NEFA-HR (2) kit); conditions: rats, compared to baseline (internal control), sampling until 180 minutes
Description: as §1, §2
The concentration of free-fatty acids (FFA) is determined in the blood samples isolated from the rats according to example 3. […]
Concentrations of non-esterified free fatty acids (NEFA) are measured using a NEFA-HR (2) kit (Wako, Chemicals Gmbh). Absorbance is measured by spectrometry (PHERAstar FS, BMG LABTECH, Ortenberg, Germany). […]
The concentration of free-fatty acids (FFA) was determined in the blood samples isolated from the rats according to example 4. […]
Concentrations of non-esterified free fatty acids (NEFA) were measured using a NEFA-HR (2) kit (Wako, Chemicals Gmbh). Absorbance was measured by spectrometry (PHERAstar FS, BMG LABTECH, Ortenberg, Germany).
The concentration of free-fatty acids (FFA) was determined in the blood samples isolated from the rats according to example 4, with the difference that KeLa (formula XXIV and XXV) was used. […]

[3] = test system: N-lactoyl-phenylalanine (Lac-Phe); experiment: Quantification of N-lactoyl-phenylalanine (Lac-Phe) in rat serum after oral administration (LC-MS/MS); conditions: compared to baseline (internal control)
Description: As provided in example 21 with the difference that N-lactoyl-phenylalanine (Lac-Phe) was quantified using LC-MS/MS analyses.
LC-MS/MS analyses were carried out as follows: Forty μL rat plasma was diluted with 100 μL water in a 2 mL tube, added 115 μL methanol (Merck hypergrade) and 420 μL acetonitrile (Merck hypergrade), vortex mixed, incubated for 5 min at room temperature, and then centrifuged at 10,000×g for 5 min. Five hundred microliter supernatant was transferred to a 96-well plate (Eppendorf 1 mL deepwell), evaporated to dryness under a nitrogen gas flow at 30° C., and then reconstituted in 100 μL water with 0.1% formic acid. […]
The sample was introduced to the mass spectrometer through electrospray ionization in the negative mode with a capillary voltage of 2.2 kV and the source and desolvation temperatures were 150 and 500° C., and the nitrogen gas flows were 50 L/h (cone) and 800 L/h (desolvation). The analytes were detected in the multiple reaction monitoring mode with the following transitions (m/z) and cone voltage/collision energies (CV/CE), L-Lac-Phe (quantification ion m/z: 236.2>88.1, CV/CE: 25V/15 eV and qualifier ion m/z: 236.2>147.1, CV/CE: 25V/15 eV). […]

SMILES	Serum levels of BHB ([1]; rats)	Serum levels of lactate ([1]; rats)	FFA-levels in rat serum [2]	Serum concentration of Lac-Phe ([3]; rats, sampling until 180 minutes)	Serum levels of BHB ([1]; single rat)	Serum levels of lactate ([1]; single rat)	Serum concentration of Lac-Phe ([3]; single rat)
C[C@H](CCOC(=O)[C@H](C)O)OC(=O)[C@H](C)O [diLaKe, (R)-butane-1,3-diyl (2S,2'S)-bis(2-hydroxypropanoate)]	increase in serum levels	increase in serum levels	decrease in FFA-levels	increased serum concentration	–	–	–
CC(=O)C(=O)OCC[C@@H](C)OC(=O)C(C)=O [diPyKe, (R)-butane-1,3-diyl bis(2-oxopropanoate)]	–	–	–	–	increase in serum levels	increase in serum levels	increased serum concentration
